Data as given in patent US5773431A (priority 1997, dated 1998).
Structures can show the parent of a compound that is named as a salt.

Experiments:
[1] = tested on: sterol 27-hydroxylase (CHO cells); assay: Sterol 27-hydroxylase activity in CHO cells (metabolites in medium by GLC-MS); type: cell-based, Chinese hamster
Experimental: (§1) Bovine aortic endothelial (BAE) cells obtained from a slaughterhouse were plated at low density (2×10^5 cells/cm^2) in 100-mm dishes and were grown to confluence in Dulbecco's modified Eagle medium (DMEM) supplemented with 10% fetal bovine serum (FBS), 50 units/ml penicillin, and 50 units/ml streptomycin at 37° C. in a 5% CO2 atmosphere. The confluent monolayer was rinsed once with Hank's balanced salt solution, and 4 ml of DMEM containing 10% […] FBS and either 20 μM cholesterol dissolved in 2-hydroxypropyl-β-cyclodextrin or an equivalent amount of vehicle alone was added to each dish. Hep G2 cells and Chinese hamster ovary cells (CHO) were cultured under identical conditions and for the same length of time. At 24-h intervals, the media and cells were harvested. The medium obtained from each dish was analyzed for metabolites. Cells were pooled for immunoblot analysis.
(§2) Following acidification and extraction into ethyl acetate, the dried residue was saponified. In some studies, solvolysis was also done prior to extraction.
(§3) Using a Hewlett-Packard GLC-MS (Model #5890-5970) and a fused silica column (CP-sil 19 CB, 0.25 mm i.d., 25 m length; Chrompack, Raritan, N.J.), the appropriate TLC fractions were injected in the splitless mode with temperature programming from 260° C. to 270° C. at 1.0° C./min and a column head pressure of 5 psi.
(§4) For the C27 acid, the ion pair that was used was m/z […] [methyl ester acetate mol ion=476-60 (acetate)] and m/z 416, and for the C24 acid, m/z 370 [mol ion methyl ester acetate=430-60 (acetate)] and m/z 373.

[2] = tested on: sterol 27-hydroxylase (Hep G2 cells); assay: Sterol 27-hydroxylase activity in Hep G2 cells (metabolites in medium by GLC-MS); type: cell-based; conditions: HEP G2 (n = 6), 72 h, 20 μM cholesterol; for Metabolites Derived from Sterol 27-Hydroxylase: 3βOH-5-cholen. a.: mean value of 2 dishes after solvolysis
Experimental: as §1, §2, §3, §4

[3] = tested on: sterol 27-hydroxylase (BAE cells); assay: Sterol 27-hydroxylase activity in BAE cells (metabolites in medium by GLC-MS); type: cell-based, bovine; conditions: for Proportion of C27 bile acid of total metabolite: cholesterol-supplemented medium; for Synthesis by BAE cells: amount in medium: delipidated FBS + 20 nmol/ml cholesterol
Experimental: as §1, §2, §3, §4

[4] = tested on: rabbit smooth muscle cells; assay: Rabbit smooth muscle cell proliferation (formazan formation from MTS); type: cell-based; conditions: 24 hr; for Optical density of wells (cell proliferation, MTS formazan): 20 μm, 5% delipidated FBS, control wells 0.402±0.037
Experimental: Cell proliferation at 24 hr was measured using formazan formation from MTS which is known to correlate with the number of cells present in each well.

[5] = tested on: cholesterol synthesis and accumulation; conditions: cited from earlier work
L1210 cells = assay: Cell proliferation of tumor cell line L1210; type: cell-based; conditions: read-out: Concentration of 27-Hydroxycholesterol Yielding 50% Growth Inhibition; L1210 cells (mouse leukemia cell line)
From the text: (§5) Conventional methods of cell culture were utilized in this experiment.

[6] = tested on: smooth muscle cells derived from human femoral artery; assay: Proliferation of smooth muscle cells derived from human femoral artery; type: cell-based; conditions: Human Femoral A, 72 hr, read-out: Percent of Control Growth
Experimental: (§6) Smooth muscle cells were cultured according to Ross (J. Cell. Biol., 50:172, 1971) from the intima-medial layer of male Sprague-Dawley rats (200-250 g). Cells were grown in monolayers at 37° C. in a humidified atmosphere of 5% CO2 in MEM supplemented with 10% FBS, 100 U/ml penicillin, 0.1 mg/ml streptomycin, […] tricine buffer and 1% non-essential amino acid solution (Corsini et al, Atherosclerosis, 101:117, 1993). The medium was changed every third day. Cells were used between the 4th and 10th passage. Cell viability was assessed by trypan blue exclusion. Smooth muscle cells were identified for growth behavior, morphology, and using monoclonal antibody specific for α-actin, using the isoform typical for smooth muscle cells. Human vascular myocytes were taken from a human femoral artery and grown under the same culture conditions.
(§7) Smooth muscle cells derived from rat aorta were seeded at a density of 2×10^5 and those from the femoral artery at a density of 5×10^4. […] Cell proliferation was determined at 72 hr either by trypsinization of the monolayer and counting in a model ZM Coulter Counter or by incorporation of tritiated thymidine after a 3 hr incubation.

[7] = in hydroxypropyl-beta-cyclodextrin vehicle
[8] = tested on: hamster aortic smooth muscle cells; conditions: six days, at the tested concentration; cited from earlier work
HCT-8 = assay: Cell proliferation of tumor cell line HCT-8; type: cell-based; conditions: read-out: Concentration of 27-Hydroxycholesterol Yielding 50% Growth Inhibition; HCT-8 (human colon carcinoma)
From the text: as §5

[9] = tested on: smooth muscle cells derived from rat aorta; assay: Proliferation of smooth muscle cells derived from rat aorta; type: cell-based, rat (male Sprague-Dawley); conditions: 72 hr
Experimental: as §6, §7

[10] = tested on: intimal thickening of abdominal aorta; assay: Vascular injury model: balloon-injured rabbit aorta, intimal thickening by intimal/medial (I/M) ratio; type: in vivo, New Zealand white rabbits
Experimental: New Zealand white rabbits weighing 2.6 to 5.1 kgs were anesthetized with intramuscular ketamine 35 mg/kg. Additional injections of ketamine (100 mg/cc) and xylazine (20 mg/cc) in a 50/50 mixture were given as necessary in 1 ml increments. Keflin (Eli Lilly & Co.), 30/mg/kg was given intravenously (IV). A longitudinal incision was made on the medial aspect of the distal hind limb to expose the greater saphenous artery. Arteriotomy was performed, and a 3-F Fogarty embolectomy catheter (Edwards Laboratories, Santa Ana, Calif.) was introduced and advanced to the level of the diaphragmatic abdominal aorta. The catheter was withdrawn from the abdominal aorta with the balloon inflated to a pressure of about 20 mm hg. This maneuver was repeated for a total of three passes. The catheter was removed, and the saphenous artery was ligated. […]
The abdominal aortas were fixed by perfusion with glutaraldehyde at physiological pressure via a catheter (14G Intracath) placed in the left ventricle. […] The entire intimal and medial areas in more than 2 sections per specimen were measured using Lucida computer calculation (Micro Brightfield, Inc.). The degree of intimal thickening was determined by calculating the intimal to medial area (I/M) ratio. Statistical significance of the difference in intimal/medial ratio between groups was calculated using student t-test. […]

K-12 cells = assay: Cell proliferation of tumor cell line K-12; type: cell-based; conditions: K12, read-out: Concentration of 27-Hydroxycholesterol Yielding 50% Growth Inhibition; K-12 cells (adenocarcinoma line)
From the text: as §5

[11] = Nonfasted rabbits, treated
restenosis = conditions: high doses, cited from earlier work
intimal proliferation = conditions: cited from earlier work
HCT-8 cells = assay: In vitro cytotoxicity test of uridyl derivative with HCT-8 cells (FIG. 1); type: cell-based, human
From the text: The results of the experimentation is illustrated in FIG. 1.

[12] = CHO (n = 3), 72 h, 20 μM cholesterol
[13] = BAE (n = 6), 72 h, 20 μM cholesterol

C[C@H](CCC(=O)O)[C@H]1CC[C@H]2[C@@H]3CC=C4C[C@@H](O)CC[C@]4(C)[C@H]3CC[C@]12C [3β-hydroxy-5-cholenoic acid]
Metabolites Derived from Sterol 27-Hydroxylase [1, 12]: not detected
Amount in the medium from CHO cells ([1]; compared with Hep G2 or BAE cells): small amount
Metabolites Derived from Sterol 27-Hydroxylase [2]: 1940 ± 270 pmol/mg/cell protein
Metabolites Derived from Sterol 27-Hydroxylase [3, 13]: not detected

CC(CCC[C@@H](C)[C@H]1CC[C@H]2[C@@H]3CC=C4C[C@@H](O)CC[C@]4(C)[C@H]3CC[C@]12C)C(=O)O (stereo partly drawn) [3β-hydroxy-5-cholestenoic acid]
Metabolites Derived from Sterol 27-Hydroxylase [1, 12]: 2 ± 1 pmol/mg/cell protein
Optical density of wells (cell proliferation, MTS formazan) [4]: 0.357±0.22
Metabolites Derived from Sterol 27-Hydroxylase [2]: 471 ± 126 pmol/mg/cell protein
Metabolites Derived from Sterol 27-Hydroxylase [3, 13]: 474 ± 118 pmol/mg/cell protein
Proportion of C27 bile acid of total metabolite ([3]; BAE cells, 24 h): 3.8%
Proportion of C27 bile acid of total metabolite ([3]; BAE cells, 72 h): 17%
Synthesis by BAE cells: amount in medium ([3]; 24 h): 42.5 ± 6.1 pmol/ml medium
Synthesis by BAE cells: amount in medium ([3]; 48 h): 112 ± 12.4 pmol/ml medium
Synthesis by BAE cells: amount in medium ([3]; 72 h): 211 ± 48.3 pmol/ml medium

CC(CN)CCC[C@@H](C)[C@H]1CC[C@H]2[C@@H]3CC=C4C[C@@H](O)CC[C@]4(C)[C@H]3CC[C@]12C (stereo partly drawn) [27-aminocholesterol]
Potency as inhibitor of cholesterol synthesis and accumulation relative to 27-hydroxycholesterol [5]: more potent

C[C@@H](CO)CCC[C@@H](C)[C@H]1CC[C@H]2[C@@H]3CC=C4C[C@@H](O)CC[C@]4(C)[C@H]3CC[C@]12C [27-hydroxycholesterol, cholest-5-ene-3β, 27-diol]
Amount present in medium from CHO cells (below the limit of detection) ([1]; 72 h, cholesterol-supplemented medium): < 10 ng per assay
Metabolites Derived from Sterol 27-Hydroxylase [1, 12]: not detected
IC50 (L1210 cells): 1.2 µM
Optical density of wells (cell proliferation, MTS formazan) [4]: 0.350±0.021
Reduction of optical density compared to control wells ([4]; p<0.01): significant reduction
activity at 1 µM ([6]; 1.0 μM): 100%
activity at 5 µM ([6]; 5.0 μM, p < 0.01): 53%
Metabolites Derived from Sterol 27-Hydroxylase [2]: 1622 ± 291 pmol/mg/cell protein
Viscosity of preparation [7]: very viscous
Inhibition of proliferation [8]: about 50%
IC50 (HCT-8): 11.5 µM
activity at 1 µM ([9]; 1.0 μM, read-out: Percent of Control Growth): 90%
activity at 5 µM ([9]; 5.0 μM, p < 0.01, read-out: Percent of Control Growth): 40%
activity at 7.5 µM ([9]; 7.5 μM, read-out: Percent of Control Growth): 18%
Reduction of the degree of intimal thickening as compared with the control group ([10]; Run II, 14 days): 1/2
IC50 (K-12 cells): 3.7 µM
Distribution of Plasma 27-Hydroxycholesterol, LDL [11]: 55%
Metabolites Derived from Sterol 27-Hydroxylase [3, 13]: 2555 ± 348 pmol/mg/cell protein
Synthesis by BAE cells: amount in medium ([3]; 24 h): 1089 ± 111 pmol/ml medium
Synthesis by BAE cells: amount in medium ([3]; 48 h): 1064 ± 161 pmol/ml medium
Synthesis by BAE cells: amount in medium ([3]; 72 h): 1029 ± 99 pmol/ml medium

CC[C@H](C)C(=O)O[C@H]1C[C@@H](C)C=C2C=C[C@H](C)[C@H](CC[C@@H]3C[C@@H](O)CC(=O)O3)[C@H]21 [Lovastatin]
Restenosis (restenosis; six months following percutaneous transluminal coronary angioplasty): did not decrease restenosis
LDL-cholesterol level (restenosis): markedly decrease

Cc1ccc(C(=O)Nc2ccc(S(=O)(=O)O)c3cc(S(=O)(=O)O)cc(S(=O)(=O)O)c23)cc1NC(=O)c1cccc(NC(=O)Nc2cccc(C(=O)Nc3cc(C(=O)Nc4ccc(S(=O)(=O)O)c5cc(S(=O)(=O)O)cc(S(=O)(=O)O)c45)ccc3C)c2)c1 [Suramin, suramin, reference compound]
Inhibition of intimal proliferation (intimal proliferation): shown to inhibit intimal proliferation
Mean Intima/Media Ratio ([10]; Run I, 14-day, test group of 5 rabbits, suramin p < 0.05, 27-hydroxycholesterol 10 mg i.v. day before surgery, 5 mg day of surgery, 5 mg twice a day days 1 to 14, in 45% HPBCD): 0.4089 ± 0.034

CC(C)CCC[C@@H](C)[C@H]1CC[C@H]2[C@@H]3CC=C4C[C@@H](O)CC[C@]4(C)[C@H]3CC[C@]12C [cholesterol]
Metabolites Derived from Sterol 27-Hydroxylase, Total [1, 12]: 2 pmol/mg/cell protein
Metabolites Derived from Sterol 27-Hydroxylase, Total [2]: 4033 pmol/mg/cell protein
Metabolites Derived from Sterol 27-Hydroxylase, Total [3, 13]: 3029 pmol/mg/cell protein
Metabolites as percent of the cholesterol added to the medium ([3]; BAE cells, 20 nmol/ml cholesterol, 72 h): approximately 5.8%

C[C@@H](CO)CCC[C@@H](C)[C@H]1CC[C@H]2[C@@H]3CC=C4C[C@@H](OP(=O)(O)OC[C@H]5O[C@@H](n6ccc(=O)[nH]c6=O)[C@H](O)[C@@H]5O)CC[C@]4(C)[C@H]3CC[C@]12C [uridine derivative, sodium salt of 3-[(25R)-26-hydroxycholesteryl]5'-uridyl monophosphate]
Inhibition of cell viability: death of HCT-8 cells (HCT-8 cells; 500 μM): cell death
Percentage of viable cells (HCT-8 cells; 100 to 500 μM, after 5 days of exposure): drops dramatically
